Consider 1 molecule from patent publication US7682785B2, “Method for predicting effectiveness of chemotherapy using anticancer agent” (Sysmex Corporation, priority 2005, dated 2010).

One test deals with p21. Kind of test: Expression level of p21 (WAF1 ELISA) in tumor tissue lysate of mouse heterograft after paclitaxel administration. In kind it is in vivo, human. Also noted: unit not given here. As to conditions: 24 hours after 20 mg/kg single administration, one value per mouse. Here is the method:
Expression level of p21 is measured using CALIBIOCHEM p21 WAF 1 ELISA kit (EMD Bioscience Inc.).
WAF1 sample solutions (mixture solutions of specimen and WAF1 standard solution containing lyophilized WAF1) were prepared by diluting the WAF1 standard solution (20 unit/ml lyophilized WAF1) stepwise with the cell lysate as the specimen. In each of the sample solutions, the cell lysate was diluted 4-times or more.
Into 96-well plastic plate in which rabbit polyclonal antibodies (primary antibody) specific to WAF1 was coated, 100 μl each of the WAF1 sample solution and the WAF1 standard solution were individually seeded into the wells. The well plate was sealed and incubated at room temperature for 2 hours for reaction with the primary antibody.
After the well plate was washed with a cleaning buffer, which was prepared by adding 25 ml of a 20-times concentrated solution to 475 ml de-ionized water, three times, 100 μl of antibodies (biotinylated anti-WAF1 monoclonal antibodies) for detection of […] were added to each well. Thereafter, the well plate was sealed and allowed to react at room temperature for 1 hour.
After the reaction, the well plate was washed with the cleaning buffer three times, and then, 100 μl of a peroxidase-conjugated streptavidine diluent was added into each well, and the mixture was stirred moderately. Thereafter, the well plate was sealed and allowed to react at room temperature for 30 minutes. After reaction, unbound peroxidase-conjugated streptavidine was removed by washing with the cleaning buffer three times. And then, 100 μl of a substrate solution (pigment source substrate) was added into each well, and the mixture was reacted at room temperature for 30 minutes. Upon lapse of 30 minutes after the addition, 100 μl of a stop solution (2.5 N sulfuric acid) was poured into each well to stop the reaction. Then, absorbance of each well's contents was measured using a plate reader at dual wavelength of 450/540 nm.
The concentration of p21WAF1 in the WAF1 sample solutions was calculated based on a standard curve of the WAF1 standard solution.
(§1) 5 kinds of human-derived breast cancer cultured cells (cells A to E) were subcutaneously implanted on the backs of forty-six mice (No. 1 to 46). The mice were raised for 21 to 28 days to engraft the breast cancer cells. […] Upon lapse of 24 hours after the administration, tissues (about 50 mg) in the size of 2.5 mm×2.5 mm was cut from the back of each mouse. Each of the tissues were homogenized using an electric homogenizer to dissolve dissolvable components in a buffer solution containing 0.1 w/v % nonidet P-40 (NP-40) (Calbiochem), 50 mM tris-HCl (pH: 7.4), 5 mM EDTA, 50 mM sodium fluoride, 1 mM sodium orothovanadate, and 100 μl/ml of protease inhibitor cocktail (Sigma, St. Louis, Mo.).
After removing insoluble components by centrifuging at 15,000 rpm for 5 minutes at 4 ° C., the obtained supernatants (cell lysates) were used as specimens.
Activity and expression level of CDK1 and CDK2 respectively were measured with respect to the specimens obtained in the experiment (1) in accordance with the aforementioned measurement method, and the specific activity of CDK1 and the specific activity of CDK2 in the specimens were calcurated. Also, the expression level of p21 in the specimens was measured in accordance with the aforementioned measurement method.

In test [1] the test system is human-derived breast cancer cultured cells (cell C). As to the kind of experiment: Effect of anticancer agent therapy for cancerous mice (change in tumor size), cell C heterograft. In kind it is in vivo. Particulars: cell C implanted subcutaneously in mice; 20 mg/kg once a day for 5 days; tumor size to the 11th day. Here is the method:
as §1
(§2) The tumor size was measured from the start of the administration to the 11th day after the start of the administration. The chemotherapeutic effectiveness was classified, according to the change in tumor size, into Type I (high chemosensitivity), Type II (medium chemosensitivity), Type III (slightly low chemosensitivity), and Type IV (low chemosensitivity). […] The classification results are shown in the column of “Effect of therapy” in Table 1.

In a further test the test system is CDK2. Kind of test: CDK2 specific activity in tumor tissue lysate of mouse heterograft after paclitaxel administration. In kind it is in vivo, human. Particulars: 24 hours after 20 mg/kg single administration, one value per mouse. Here is the method: A tissue specimen containing target tumor cells was prepared in a 1.5 ml-Eppendorf tube so that 100 μg lysate in terms of total protein mass was dissolved in a buffer solution of 500 μl. […] After the addition, the solution was reacted at 4° C. for 1 hour. Thereafter, the beads were washed with a buffer solution (0.1% NP-40 and 50 mM tris-HCl adjusted pH 7.0) three times, followed by re-suspension in a kinase buffer of 15 μl. Thus, a sample containing the beads to which the target CDK binds was yielded.
(§3) In the sample, all the CDK (hereinafter, if distinction is not necessary, simply called as “CDKs”) including CDK itself, activated CDK to which cycline binds, complexes of activated CDK and CDK inhibitor, and complexes of CDK and CDK inhibitor were bound to the antibodies, thereby fixing the CDKs to the beads. The activity of the CDKs in the sample was measured by the following measurement method.
(§4) Prepared was a substrate solution containing 5 mM adenosine 5′-O-([…]) (ATP-γS (Sigma)), a buffer solution (20 mM tris-HCl (pH: 7.4), 0.1% Triton-X-100), and 10 μg histon H1 (Upstate Biotechnology, Lake Placid, N.Y.) as a substrate for CDK1 and CDK2. The substrate solution was added to the aforementioned sample solution containing the CDKs up to the total volume of 50 μl. The resulting sample solution was shaken for 10 minutes at 37° C. for incubation. As shown by the following formula, serine or threonine residue in the substrate was phosphorylated by the activated CDK, and monothiophosphorylated substrate was yielded.
(§5) After the reaction, the sample solution was centrifuged at 20,000 rpm for 20 seconds to precipitate the beads, and 18 μl of a supernatant in which monothiophosphates were dissolved was obtained. To 18 μl of the supernatant, added was 15 μl of a buffer solution (150 mM tris-HCl (pH: 9.2) and 5 mM EDTA). Further, the resultant solution was incubated in 10 mM iodoacetyl biotin solution (100 mM tris-HCl (pH: 7.5) and 1 mM EDTA) in a dark place for 90 minutes at room temperature. Thereby, sulfur ions in the thiophosphates in the monothiophosphorylated substrate were labeled by biotinylation. The reaction of the iodoacetyl biotin with the thiophosphates was stopped by adding […].
0.4 μg of the biotinylated thiophosphorylated substrate was blotted on a PVDF membrane by using a slot blotter for adsorption. The blotted membrane was blocked with 1% of bovine serum albumin (BSA) for 30 minutes, followed by reaction with avidin-FITC (Vector, Burlingame, Calif.) at 37° C. for 1 hour. Thereafter, the membrane was washed with 50 mM TBS (25 mM tris-HCl (pH: 7.4) and 150 mM NaCl) for 10 minutes three times. After the washing, the image on the membrane was analyzed by a fluorescent image analyzer (Bio-Rad, Calif. U.S.A.). The activity of the CDKs was calculated based on a standard curve.
The standard curve was created by adsorbing a protein (biotinylated immunoglobulin) of a known amount to a PVDF membrane, labeling the protein with FITC in the same manner as mentioned above, and measuring the fluorescent intensity of the protein by the fluorescent image analyzer (Bio-Rad). 1 U of the CDK activity to be measured is a value representing the fluorescent intensity substantially equivalent to the fluorescent amount of the target protein of 1 ng.
An initialized PVDF membrane (Millipore, Billerica, Mass.) obtained by immersing the membrane in TBS (25 mM tris-HCl (pH: 7.4) and 150 mM NaCl) was set to a well plate for slot blotter. […]

Test [2] concerns human-derived breast cancer cultured cells (cell A). As to the kind of experiment: Effect of anticancer agent therapy for cancerous mice (change in tumor size), cell A heterograft. In kind it is in vivo. As to conditions: cell A implanted subcutaneously in mice; 20 mg/kg once a day for 5 days; tumor size to the 11th day. Here is the method: as §1, §2
For test [3], the system named is human-derived breast cancer cultured cells (cell E). As to the kind of experiment: Effect of anticancer agent therapy for cancerous mice (change in tumor size), cell E heterograft. Particulars: cell E implanted subcutaneously in mice; 20 mg/kg once a day for 5 days; tumor size to the 11th day. It counts as in vivo. Here is the method: as §1, §2
Test [4] deals with human-derived breast cancer cultured cells (cell B). Kind of test: Effect of anticancer agent therapy for cancerous mice (change in tumor size), cell B heterograft. In kind it is in vivo. Particulars: cell B implanted subcutaneously in mice; 20 mg/kg once a day for 5 days; tumor size to the 11th day. Here is the method:
as §1, §2

The test system of another test is CDK1. As to the kind of experiment: CDK1 specific activity in tumor tissue lysate of mouse heterograft after paclitaxel administration. It counts as in vivo, human. Particulars: 24 hours after 20 mg/kg single administration, one value per mouse. Here is the method: A tissue specimen containing target tumor cells was prepared in a 1.5 ml-Eppendorf tube so that 100 μg lysate in terms of total protein mass was dissolved in a buffer solution of 500 μl. To the buffer solution, added were sepharose beads (Bio-Rad, Calif., U.S.A.) coated with 20 μl of a protein A and 2 μg of antibodies specific to the CDK whose activity was to be measured, i.e. polyclonal anti-CDK1-antibodies or polyclonal anti-CDK2-antibodies (Santa Cruz Biotechnology, Santa Cruz, Calif.). After the addition, the solution was reacted at 4° C. for 1 hour. Thereafter, the beads were washed with a buffer solution (0.1% NP-40 and 50 mM tris-HCl adjusted pH 7.0) three times, followed by re-suspension in a kinase buffer of 15 μl. Thus, a sample containing the beads to which the target CDK binds was yielded.
as §3, §4, §5
0.4 μg of the biotinylated thiophosphorylated substrate was blotted on a PVDF membrane by using a slot blotter for adsorption. The blotted membrane was blocked with 1% of bovine serum albumin (BSA) for 30 minutes, followed by reaction with avidin-FITC (Vector, Burlingame, Calif.) at 37° C. for 1 hour. […] After the washing, the image on the membrane was analyzed by a fluorescent image analyzer (Bio-Rad, Calif. U.S.A.). The activity of the CDKs was calculated based on a standard curve.
The standard curve was created by adsorbing a protein (biotinylated immunoglobulin) of a known amount to a PVDF membrane, labeling the protein with FITC in the same manner as mentioned above, and measuring the fluorescent intensity of the protein by the fluorescent image analyzer (Bio-Rad). 1 U of the CDK activity to be measured is a value representing the fluorescent intensity substantially equivalent to the fluorescent amount of the target protein of 1 ng. […]

Test [5] relates to human-derived breast cancer cultured cells (cell D). As to the kind of experiment: Effect of anticancer agent therapy for cancerous mice (change in tumor size), cell D heterograft. In kind it is in vivo. Particulars: cell D implanted subcutaneously in mice; 20 mg/kg once a day for 5 days; tumor size to the 11th day. Here is the method: as §1, §2

The structures appear in SMILES notation. Where “and” joins values, the source holds several entries; their conditions need not be identical. Equal values may be shown once.

`CC(=O)O[C@H]1C(=O)[C@@]2(C)[C@H]([C@H](OC(=O)c3ccccc3)[C@]3(O)C[C@H](OC(=O)[C@H](O)[C@@H](NC(=O)c4ccccc4)c4ccccc4)C(C)=C1C3(C)C)[C@]1(OC(C)=O)CO[C@@H]1C[C@@H]2O` [paclitaxel]: the “Expression level of p21” value was 1.43 and 1.34 and 1.93 and 1.28 and 0.00 and 0.86 and 1.26 in the test on p21 (cell A tumor tissue); 4.09 and 4.61 and 5.18 and 5.25 and 5.41 and 5.57 and 5.33 and 5.00 and 3.42 and 4.33 and 5.43 in the test with p21 (cell B tumor tissue); 1.06 and 1.44 and 0.00 (7×) and 1.31 and 0.85 and 0.77 and 0.64 and 0.57 and 0.53 and 0.29 in the test on p21 (cell C tumor tissue); 8.76 and 7.21 and 7.62 and 7.34 and 6.39 and 5.40 and 0.74 in the test with p21 (cell D tumor tissue); 34.45 and 10.96 and 15.33 and 17.25 and 15.25 with p21 (cell E tumor tissue). For the same molecule, the “Therapy using anticancer agent: Effect of therapy” value is reported as “Type II” in test [1]; “Type I” in test [2]; “Type IV” in test [3]; “Type II” in test [4]; “Type III” in test [5]. In addition, the “Specific activity of CDK2” value in the test with CDK2 (cell A tumor tissue) is 734.6 mU/ng and 634.1 mU/ng and 1083.2 mU/ng and 766.4 mU/ng and 407.1 mU/ng and 574.5 mU/ng and 545.0 mU/ng; with CDK2 (cell B tumor tissue) it was 156.2 mU/ng and 192.8 mU/ng and 109.1 mU/ng and 328.6 mU/ng and 64.8 mU/ng and 130.5 mU/ng and 171.6 mU/ng and 140.3 mU/ng and 157.9 mU/ng and 92.1 mU/ng and 41.9 mU/ng; with CDK2 (cell C tumor tissue), 163.6 mU/ng and 213.3 mU/ng and 209.9 mU/ng and 341.2 mU/ng and 106.9 mU/ng and 206.6 mU/ng and 140.6 mU/ng and 98.6 mU/ng and 114.8 mU/ng and 201.8 mU/ng and 129.9 mU/ng and 151.0 mU/ng and 138.8 mU/ng and 187.9 mU/ng and 124.6 mU/ng and 136.6 mU/ng; in the test with CDK2 (cell D tumor tissue), 0.0 mU/ng (4×) and 80.1 mU/ng and 23.6 mU/ng; in the test with CDK2 (cell E tumor tissue), 55.7 mU/ng and 50.2 mU/ng and 59.1 mU/ng and 0.0 mU/ng and 56.4 mU/ng. The “Specifc activity of CDK1” value in the test with CDK1 (cell A tumor tissue) was 11.79 mU/ng and 10.83 mU/ng and 17.50 mU/ng and 21.77 mU/ng and 16.12 mU/ng and 16.82 mU/ng and 13.55 mU/ng; in the test with CDK1 (cell B tumor tissue) it was 27.00 mU/ng and 31.56 mU/ng and 20.53 mU/ng and 13.39 mU/ng and 33.32 mU/ng and 32.01 mU/ng and 34.33 mU/ng and 34.21 mU/ng and 35.27 mU/ng and 25.40 mU/ng and 13.90 mU/ng; in the test on CDK1 (cell C tumor tissue) it was 25.48 mU/ng and 11.25 mU/ng and 22.64 mU/ng and 39.14 mU/ng and 21.35 mU/ng and 11.22 mU/ng and 13.77 mU/ng and 7.06 mU/ng and 16.60 mU/ng and 11.60 mU/ng and 15.29 mU/ng and 12.58 mU/ng and 41.80 mU/ng and 60.36 mU/ng and 36.09 mU/ng and 30.85 mU/ng; with CDK1 (cell D tumor tissue) it was 10.75 mU/ng and 0.00 mU/ng and 7.10 mU/ng and 6.48 mU/ng and 22.16 mU/ng and 9.68 mU/ng and 10.04 mU/ng; with CDK1 (cell E tumor tissue), 9.81 mU/ng and 2.45 mU/ng and 8.76 mU/ng and 7.92 mU/ng and 8.29 mU/ng.
